Where “and” joins values, the source holds several entries; their conditions need not be identical. Equal entries are not always repeated.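 All cell lines were grown in 96-well plates and treated with compound for 48 hours. GI50: concentration for 50% inhibition of growth. TGI is the concentration that stops growth completely.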
The compounds below were run on P388 leukemia (assay: NCI tumour cell line growth inhibition, 48 h).
For `COc1cc2c(cc1OC)C(C(c1ccccc1)c1ccccc1)N(C)CC2` (configuration not stated), the TGI was over 100 µM. Work on `C[N+](C)([O-])CCOc1cc2c(c3ccccc13)-c1ccccc1C2=O` yielded a TGI of over 100 µM. With `CCCCCCCCCCCC[S+](C)C` the TGI was 3.1 µM.

Each compound was assayed on XF 498 CNS (assay: NCI tumour cell line growth inhibition, 48 h).
Compound `Cc1ccc(/C=N\NC2c3cc(Cl)ccc3Nc3nc(=O)[nH]c(C)c32)cc1` (configuration not stated) has a TGI of over 100 µM. In the case of `O=C(O)COc1ccccc1C(=O)Nc1ccccc1`, the TGI is reported as over 100 µM. `COc1cc2c(cc1OC)C(C(c1ccccc1)c1ccccc1)N(C)CC2` (configuration not stated) gave a TGI of 97.8 µM. In the case of `C[N+](C)([O-])CCOc1cc2c(c3ccccc13)-c1ccccc1C2=O`, the TGI is reported as 37.9 µM. `CCOC(=O)C1S/C(=N\C(=N)N[N+](=O)[O-])N=C1C` (configuration not stated) gave a TGI of over 100 µM. `CC(O)CNC(=O)C(C)Oc1ccc(OCC2CCCCC2)cc1` (configuration not stated) was tested, and the TGI was over 100 µM. With `CCCCCCCCCCCC[S+](C)C` the TGI was 6.71 µM.

The compounds below were run on P388/ADR leukemia (assay: NCI tumour cell line growth inhibition, 48 h).
`COc1cc2c(cc1OC)C(C(c1ccccc1)c1ccccc1)N(C)CC2` (configuration not stated) showed a TGI of over 100 µM. Work on `C[N+](C)([O-])CCOc1cc2c(c3ccccc13)-c1ccccc1C2=O` yielded a TGI of over 45.2 µM. `CCCCCCCCCCCC[S+](C)C` gave a TGI of over 100 µM.

Each compound was assayed on LXFL 529 NSCLC (assay: NCI tumour cell line growth inhibition, 48 h).
Work on `Cc1ccc(/C=N\NC2c3cc(Cl)ccc3Nc3nc(=O)[nH]c(C)c32)cc1` (configuration not stated) yielded a TGI of over 100 µM. Compound `O=C(O)COc1ccccc1C(=O)Nc1ccccc1` has a TGI of over 100 µM. With `CCOC(=O)N1CCC(N[C@@H]2c3cc4c(cc3C(c3cc(OC)c(O)c(OC)c3)C3C(=O)OC[C@@H]32)OCO4)CC1` (some centres not stated) the TGI was 21.4 µM and > 25 µM. In the case of `CCOC(=O)C1S/C(=N\C(=N)N[N+](=O)[O-])N=C1C` (configuration not stated), the TGI is reported as over 100 µM. In the case of `CCCCCCCCCCCCCCCCNc1cccc2ccccc12`, the TGI is reported as over 100 µM. With `O=C1OCC/C1=N/O` the TGI was over 100 µM. `CC(O)CNC(=O)C(C)Oc1ccc(OCC2CCCCC2)cc1` (configuration not stated) was tested, and the TGI was over 100 µM.

Each compound was assayed on DMS 273 small cell lung (assay: NCI tumour cell line growth inhibition, 48 h).
With `Cc1ccc(/C=N\NC2c3cc(Cl)ccc3Nc3nc(=O)[nH]c(C)c32)cc1` (configuration not stated) the TGI was over 100 µM. Compound `O=C(O)COc1ccccc1C(=O)Nc1ccccc1` has a TGI of over 100 µM. For `COc1cc2c(cc1OC)C(C(c1ccccc1)c1ccccc1)N(C)CC2` (configuration not stated), the TGI was over 100 µM. For `CCOC(=O)N1CCC(N[C@@H]2c3cc4c(cc3C(c3cc(OC)c(O)c(OC)c3)C3C(=O)OC[C@@H]32)OCO4)CC1` (some centres not stated), the GI50 was 0.18 µM and 1.55 µM and the TGI was 6.03 µM and 9.02 µM. With `C[N+](C)([O-])CCOc1cc2c(c3ccccc13)-c1ccccc1C2=O` the TGI was 43.9 µM. `CCCCCCCCCCCCCCCCNc1cccc2ccccc12` showed a TGI of over 100 µM. With `O=C1OCC/C1=N/O` the TGI was over 100 µM. `CC(O)CNC(=O)C(C)Oc1ccc(OCC2CCCCC2)cc1` (configuration not stated) showed a TGI of over 100 µM. Work on `CCCCCCCCCCCC[S+](C)C` yielded a TGI of 17.2 µM.

Each compound was assayed on KM20L2 colon (assay: NCI tumour cell line growth inhibition, 48 h).
`Cc1ccc(/C=N\NC2c3cc(Cl)ccc3Nc3nc(=O)[nH]c(C)c32)cc1` (configuration not stated) showed a TGI of over 100 µM. Compound `O=C(O)COc1ccccc1C(=O)Nc1ccccc1` has a TGI of over 100 µM. Work on `COc1cc2c(cc1OC)C(C(c1ccccc1)c1ccccc1)N(C)CC2` (configuration not stated) yielded a TGI of over 73.7 µM. With `CCOC(=O)N1CCC(N[C@@H]2c3cc4c(cc3C(c3cc(OC)c(O)c(OC)c3)C3C(=O)OC[C@@H]32)OCO4)CC1` (some centres not stated) the GI50 was 2.16 µM and 4.5 µM and the TGI was 14.5 µM and 15.6 µM. Work on `C[N+](C)([O-])CCOc1cc2c(c3ccccc13)-c1ccccc1C2=O` yielded a TGI of over 63.5 µM. Work on `CCOC(=O)C1S/C(=N\C(=N)N[N+](=O)[O-])N=C1C` (configuration not stated) yielded a TGI of over 100 µM. `CCCCCCCCCCCCCCCCNc1cccc2ccccc12` was tested, and the TGI was over 100 µM. With `O=C1OCC/C1=N/O` the TGI was over 100 µM. Work on `CCCCCCCCCCCC[S+](C)C` yielded a TGI of 20.9 µM.

What follows are compounds tested on SNB-78 CNS (assay: NCI tumour cell line growth inhibition, 48 h).
With `Cc1ccc(/C=N\NC2c3cc(Cl)ccc3Nc3nc(=O)[nH]c(C)c32)cc1` (configuration not stated) the TGI was over 100 µM. In the case of `O=C(O)COc1ccccc1C(=O)Nc1ccccc1`, the TGI is reported as over 100 µM. Work on `COc1cc2c(cc1OC)C(C(c1ccccc1)c1ccccc1)N(C)CC2` (configuration not stated) yielded a TGI of over 100 µM. With `CCOC(=O)N1CCC(N[C@@H]2c3cc4c(cc3C(c3cc(OC)c(O)c(OC)c3)C3C(=O)OC[C@@H]32)OCO4)CC1` (some centres not stated) the TGI was 50 µM and > 25 µM. Compound `C[N+](C)([O-])CCOc1cc2c(c3ccccc13)-c1ccccc1C2=O` has a TGI of over 91.1 µM. For `CCCCCCCCCCCCCCCCNc1cccc2ccccc12`, the TGI was over 100 µM. Work on `O=C1OCC/C1=N/O` yielded a TGI of over 100 µM. For `CC(O)CNC(=O)C(C)Oc1ccc(OCC2CCCCC2)cc1` (configuration not stated), the TGI was over 100 µM. With `CCCCCCCCCCCC[S+](C)C` the TGI was 26.6 µM.

These compounds were tested on SN12K1 renal (assay: NCI tumour cell line growth inhibition, 48 h).
`COc1cc2c(cc1OC)C(C(c1ccccc1)c1ccccc1)N(C)CC2` (configuration not stated) gave a TGI of over 65.6 µM. For `C[N+](C)([O-])CCOc1cc2c(c3ccccc13)-c1ccccc1C2=O`, the TGI was 37.8 µM. `CCCCCCCCCCCC[S+](C)C` was tested, and the TGI was 18.8 µM.
